Results from ChEMBL document CHEMBL6109120, “Discovery of Novel SIK2/3 Inhibitors for the Potential Treatment of MEF2C+ Acute Myeloid Leukemia (AML)” (J Med Chem, 2025).

What was measured:
[1] = target: Tyrosine-protein kinase Lck (Homo sapiens, UniProt P06239); assay: Binding affinity to human LCK by KINOMEscan assay
[2] = target: MAP kinase-interacting serine/threonine-protein kinase 2 (Homo sapiens, UniProt Q9HBH9); assay: Binding affinity to human MKNK2 by KINOMEscan assay
Cytochrome P450 1A2 = target: T1, Cytochrome P450 1A2 (Homo sapiens, UniProt P05177); assay: Inhibition of CYP1A2 in human liver microsomes assessed as Phenacetin O-deethylation reaction measured after 30 mins by LC/MS/MS analysis; format: ADME, Microsome
T1 sequence (P05177 whole entry): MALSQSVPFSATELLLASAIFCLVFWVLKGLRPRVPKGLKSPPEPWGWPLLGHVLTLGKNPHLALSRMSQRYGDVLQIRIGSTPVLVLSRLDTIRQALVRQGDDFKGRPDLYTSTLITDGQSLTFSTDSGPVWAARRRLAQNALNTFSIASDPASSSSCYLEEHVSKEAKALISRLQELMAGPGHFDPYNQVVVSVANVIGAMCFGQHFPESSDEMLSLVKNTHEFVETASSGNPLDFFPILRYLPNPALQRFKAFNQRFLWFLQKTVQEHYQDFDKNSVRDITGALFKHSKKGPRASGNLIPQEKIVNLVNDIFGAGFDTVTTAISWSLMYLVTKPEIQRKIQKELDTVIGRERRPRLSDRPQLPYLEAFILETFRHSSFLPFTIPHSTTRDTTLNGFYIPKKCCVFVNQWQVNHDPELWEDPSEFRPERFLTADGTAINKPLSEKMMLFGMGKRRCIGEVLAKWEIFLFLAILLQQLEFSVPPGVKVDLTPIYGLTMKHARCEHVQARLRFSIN

Cytochrome P450 2C19 = Cytochrome P450 2C19 (Homo sapiens, UniProt P33261); assay: Inhibition of CYP2C19 in human liver microsomes assessed as S-mephenytoin 4-hydroxylation reaction measured after 30 mins by LC/MS/MS analysis; format: ADME, Microsome
Cytochrome P450 3A4 = Cytochrome P450 3A4 (Homo sapiens, UniProt P08684); assay: Inhibition of CYP3A4 in human liver microsomes assessed as midazolam 1-hydroxylation reaction measured after 30 mins by LC/MS/MS analysis; format: ADME, Microsome
[3] = target: T2, Dual specificity mitogen-activated protein kinase kinase 5 (Homo sapiens, UniProt Q13163)
T2 sequence (Q13163 whole entry): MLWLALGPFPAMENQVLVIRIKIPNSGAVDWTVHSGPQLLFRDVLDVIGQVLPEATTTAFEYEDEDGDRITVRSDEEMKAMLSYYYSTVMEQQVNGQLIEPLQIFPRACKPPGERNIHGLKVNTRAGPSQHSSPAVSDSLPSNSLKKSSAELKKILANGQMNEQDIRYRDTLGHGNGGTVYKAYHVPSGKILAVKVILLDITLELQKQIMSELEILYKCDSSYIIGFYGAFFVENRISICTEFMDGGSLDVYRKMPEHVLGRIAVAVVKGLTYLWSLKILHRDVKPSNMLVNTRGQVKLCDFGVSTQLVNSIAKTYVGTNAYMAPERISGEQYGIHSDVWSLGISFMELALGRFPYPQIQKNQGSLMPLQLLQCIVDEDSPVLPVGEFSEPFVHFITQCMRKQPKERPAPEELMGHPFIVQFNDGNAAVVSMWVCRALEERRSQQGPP
Description: Binding affinity to human MEK5 by KINOMEscan assay

[4] = target: T3, Serine/threonine-protein kinase ULK1 (Homo sapiens, UniProt O75385)
T3 sequence (O75385 whole entry): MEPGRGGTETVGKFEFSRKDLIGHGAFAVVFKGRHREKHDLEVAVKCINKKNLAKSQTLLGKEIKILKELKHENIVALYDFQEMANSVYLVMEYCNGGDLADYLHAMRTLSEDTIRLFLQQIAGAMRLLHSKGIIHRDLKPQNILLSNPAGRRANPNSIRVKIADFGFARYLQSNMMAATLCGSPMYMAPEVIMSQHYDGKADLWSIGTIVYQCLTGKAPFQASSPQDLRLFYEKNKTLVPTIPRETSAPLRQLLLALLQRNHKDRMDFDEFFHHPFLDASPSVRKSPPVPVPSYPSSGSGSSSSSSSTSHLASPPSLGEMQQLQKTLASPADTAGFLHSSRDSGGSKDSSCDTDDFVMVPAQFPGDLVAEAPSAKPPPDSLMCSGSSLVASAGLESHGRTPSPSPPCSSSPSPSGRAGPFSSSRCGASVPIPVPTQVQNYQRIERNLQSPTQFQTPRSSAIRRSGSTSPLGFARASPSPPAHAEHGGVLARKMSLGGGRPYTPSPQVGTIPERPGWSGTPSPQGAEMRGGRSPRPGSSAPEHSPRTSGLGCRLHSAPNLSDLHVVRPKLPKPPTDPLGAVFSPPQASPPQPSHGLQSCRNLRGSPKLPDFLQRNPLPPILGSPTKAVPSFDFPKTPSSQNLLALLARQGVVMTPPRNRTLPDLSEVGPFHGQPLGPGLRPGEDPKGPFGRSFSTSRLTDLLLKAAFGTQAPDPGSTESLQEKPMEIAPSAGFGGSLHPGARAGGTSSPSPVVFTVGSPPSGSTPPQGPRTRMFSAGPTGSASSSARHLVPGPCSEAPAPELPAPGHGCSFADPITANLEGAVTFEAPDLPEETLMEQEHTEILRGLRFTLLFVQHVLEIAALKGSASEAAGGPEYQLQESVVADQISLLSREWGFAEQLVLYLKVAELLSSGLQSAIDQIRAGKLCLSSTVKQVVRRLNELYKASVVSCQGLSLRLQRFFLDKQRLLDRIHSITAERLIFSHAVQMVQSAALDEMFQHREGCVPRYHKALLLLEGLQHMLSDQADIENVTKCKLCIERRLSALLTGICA
Description: Binding affinity to human ULK1 by KINOMEscan assay

Chain of MAP kinase-interacting serine/threonine-protein kinase 2 (Q9HBH9 whole entry): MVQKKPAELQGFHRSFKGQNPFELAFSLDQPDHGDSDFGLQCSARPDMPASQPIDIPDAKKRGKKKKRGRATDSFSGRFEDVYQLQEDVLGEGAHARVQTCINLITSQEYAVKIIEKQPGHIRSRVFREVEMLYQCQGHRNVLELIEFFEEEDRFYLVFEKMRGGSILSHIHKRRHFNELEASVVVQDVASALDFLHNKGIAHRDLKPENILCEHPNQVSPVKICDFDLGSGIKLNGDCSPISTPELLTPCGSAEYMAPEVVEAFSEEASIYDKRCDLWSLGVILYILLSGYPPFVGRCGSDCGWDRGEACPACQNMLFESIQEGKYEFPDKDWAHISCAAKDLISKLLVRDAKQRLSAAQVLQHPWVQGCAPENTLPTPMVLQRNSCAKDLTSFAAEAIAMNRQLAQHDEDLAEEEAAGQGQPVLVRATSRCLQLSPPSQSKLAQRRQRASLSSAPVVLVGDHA
Chain of Tyrosine-protein kinase Lck (P06239 whole entry): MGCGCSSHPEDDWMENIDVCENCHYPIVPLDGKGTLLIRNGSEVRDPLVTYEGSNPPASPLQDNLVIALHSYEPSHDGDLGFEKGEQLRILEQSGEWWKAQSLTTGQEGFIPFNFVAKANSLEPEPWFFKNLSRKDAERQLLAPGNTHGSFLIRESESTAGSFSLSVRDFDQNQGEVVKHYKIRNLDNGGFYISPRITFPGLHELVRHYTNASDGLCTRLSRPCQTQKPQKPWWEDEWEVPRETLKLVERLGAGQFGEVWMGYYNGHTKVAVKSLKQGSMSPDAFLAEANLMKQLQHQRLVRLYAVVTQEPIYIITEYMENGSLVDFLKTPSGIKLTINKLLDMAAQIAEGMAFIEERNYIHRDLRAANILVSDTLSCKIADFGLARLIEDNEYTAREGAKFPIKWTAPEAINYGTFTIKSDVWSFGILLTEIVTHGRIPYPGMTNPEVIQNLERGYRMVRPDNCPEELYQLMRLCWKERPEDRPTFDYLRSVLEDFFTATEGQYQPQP
Chain of Cytochrome P450 2C19 (P33261 whole entry): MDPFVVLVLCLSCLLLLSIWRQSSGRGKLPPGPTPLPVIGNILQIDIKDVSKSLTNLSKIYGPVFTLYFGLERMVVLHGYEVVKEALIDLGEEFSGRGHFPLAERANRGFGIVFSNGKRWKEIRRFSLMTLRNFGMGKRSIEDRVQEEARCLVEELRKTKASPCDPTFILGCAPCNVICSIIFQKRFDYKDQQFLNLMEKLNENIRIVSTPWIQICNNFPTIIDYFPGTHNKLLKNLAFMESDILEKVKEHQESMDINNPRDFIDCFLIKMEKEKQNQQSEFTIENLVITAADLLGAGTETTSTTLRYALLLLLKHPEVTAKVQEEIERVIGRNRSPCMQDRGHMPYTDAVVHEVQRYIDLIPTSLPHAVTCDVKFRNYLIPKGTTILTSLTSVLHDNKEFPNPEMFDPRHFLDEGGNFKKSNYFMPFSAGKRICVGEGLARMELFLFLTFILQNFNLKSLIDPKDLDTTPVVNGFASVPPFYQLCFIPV
Chain of Cytochrome P450 3A4 (P08684 whole entry): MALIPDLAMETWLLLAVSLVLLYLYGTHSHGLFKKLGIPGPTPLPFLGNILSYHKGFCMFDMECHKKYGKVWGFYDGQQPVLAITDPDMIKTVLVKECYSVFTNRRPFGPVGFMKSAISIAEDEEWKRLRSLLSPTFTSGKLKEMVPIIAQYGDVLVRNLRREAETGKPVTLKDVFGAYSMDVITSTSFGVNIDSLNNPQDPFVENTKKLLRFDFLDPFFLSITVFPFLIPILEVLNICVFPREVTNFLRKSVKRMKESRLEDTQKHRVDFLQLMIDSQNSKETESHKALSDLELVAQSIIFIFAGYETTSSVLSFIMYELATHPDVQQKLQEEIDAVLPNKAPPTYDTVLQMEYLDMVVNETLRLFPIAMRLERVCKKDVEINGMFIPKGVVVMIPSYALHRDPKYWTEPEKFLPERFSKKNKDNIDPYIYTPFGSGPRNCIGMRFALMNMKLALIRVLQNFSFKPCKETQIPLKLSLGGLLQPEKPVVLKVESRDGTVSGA

IC50 [1]: 326 nM
IC50 [2]: 15 nM
IC50 (Cytochrome P450 1A2): > 50000 nM
IC50 (Cytochrome P450 2C19): > 50000 nM
IC50 (Cytochrome P450 3A4): > 50000 nM
IC50 [3]: 2650 nM
IC50 [4]: 586 nM
SMILES: COc1nc(-c2cc(-c3cnn(C)c3)cnc2N)cc2c1C(=O)N(CC(F)(F)F)CC2
